From patent US20050277586A1, “Peptide chemically modified with polyethylene glycol” (priority 2002, published 2005) come the findings set out here.

The subject of data set [1] is Vero cell, T24 cell, A549 cell. The data set can be described thus: Nucleic acid-introducing ability, luciferase-expressing plasmid (procedure of Example 9). As to conditions: for Nucleic acid-introducing ability: luciferase plasmid 1 μg/mL, highest count of peptide 1.25, 2.5 or 5 μM, cell line not stated. Format: cell-based. From the text: A cell line established from monkey kidney (Vero cell) and a human bladder cancer cell (T24 cell) purchased from American Type Culture Collection (ATCC) and human lung cancer cell (A549 cell) purchased from Dainippon Pharmaceutical were inoculated on a 24 well culture plate (manufactured by NALGEN NUNC) at 1×10^5 cells/well. Vero cell and A549 cell were cultivated in DMEM (manufactured by Life Technologies Oriental) supplemented with 10% fetal bovine serum (hereinafter referred to as FBS, manufactured by NICHIREI), and T24 cell was cultivated in McCoy's 5a (manufactured by Life Technologies Oriental) supplemented with 10% FBS in 5% CO2 atmosphere at 37° C. for 24 hours. After removing the medium, opti-MEM (manufactured by Life Technologies Oriental) prepared to have the concentration of the luciferase-expressing plasmid prepared in Example 7 of 1 μg/mL and the concentration of the peptide prepared in Example 1 of 1.25, 2.5, or 5 μM was added, and the cells were cultivated for 5 hours. Next, in the case of Vero cell and A549 cell, the culture medium was replaced with DMEM supplemented with 10% FBS, and in the case of T24 cell, the medium was replaced with McCoy's 5a supplemented with 10% FBS, and cultivation was continued in 5% CO2 atmosphere and at 37° C. for another 24 hours. The luciferase activity expressed in the cell was then measured by the method instructed in luciferase assay system (manufactured by Promega). To be more specific, the cells were washed with phosphate-buffered saline (hereinafter referred to as PBS, manufactured by SIGMA), and the cells were lyzed with Passive Lysis Buffer attached to the kit.
20 μL of this cell lysate and 100 μL of the Luciferase Assay Reagent II attached to the kit was added to a fluorescence-measuring plate (Microlite™ 1 plate, manufactured by Dynatech), and after mixing, fluorescence was measured for 1 second by using a multilabel counter (ARVO™ SY1420 MULTILABEL COUNTER, manufactured by Wallac Beltold.
Concentration of the protein in the cell lysate was measured by mixing 8 μL of the cell lysate and 200 μL of the protein assay solution (manufactured by Biorad) with 792 μL of ultrapure water in a disposable cuvette (UV fluorescent cuvette A204X, manufactured by Funakoshi), allowing the mixture to stand for 5 minutes at room temperature, and measuring the absorption at 595 nm with a spectrophotometer (DU640, manufactured by Beckman). Bovine serum albumin (BSA) was used for the standard protein. By using the thus obtained results, count per 1 second per 1 mg of protein of the cell lysate was calculated to thereby use the count as the luciferase activity, and the highest count in the three conditions of different peptide concentration was designated the gene-introducing ability of the peptide.

Data set [2] has as its target phosphatidyl serine (binding of human Factor VIII). The data set can be described thus: Affinity for phosphatidyl serine (EIA, inhibition of human Factor VIII binding). As to conditions: for IC50: in the presence of 5% BSA, human Factor VIII 1 μg/mL. How it is done:
The specific affinity of the peptide for phosphatidyl serine was evaluated by measuring activity of the peptide for inhibiting the binding of the human Factor VIII to phosphatidyl serine by using human Factor VIII which is known to bind to phosphatidyl serine but not to phosphatidyl choline in the presence of serum albumin. To be more specific, 100 μL of ethanol solution containing 10 μg/mL of phospholipids at a phosphatidyl serine (manufactured by SIGMA): phosphatidyl choline (manufactured by SIGMA) ratio of 3:7 was added to the wells of a 96 well plate (Immulon I, manufactured by Dynatech), and exsiccated by using a centrifugal evaporator (EC-95C, manufactured by Sakuma Seisakusho) at 40° C. for 40 minutes. 200 μL each of TBS (10 mM Tris-HCl (pH 7.4) containing 1% bovine serum albumin (BSA Fraction V, hereinafter referred to as BSA, manufactured by Seikagaku Corporation) and 0.9% (W/V) NaCl solution were added to each well, and the wells were blocked by allowing the plate to stand at 37° C. for 2.5 hours. After washing the plate with water, 100 μL of TBS solution supplemented with 5% BSA mixed with human Factor VIII (manufactured by American Diagnostica) at a final concentration 1 μg/mL and the peptide of predetermined dose prepared in Example 1 was added to each well, and the reaction was allowed to take place at 4° C. for 24 hours.
After the completion of the reaction, the human Factor VIII that became bound to the phosphatidyl serine was measured by enzyme immunoassay (EIA) in accordance with the general procedure described in a book (“Enzyme Immunoassay (3rd ed.)”, Eiji Ishikawa et al., Igaku-Shoin, 1987). To be more specific, the measurement was conducted by using anti-human Factor VIII mouse monoclonal antibody (ESH8, manufactured by American Diagnostica) for the primary antibody, horseradish peroxidase-labeled anti-mouse IgG antibody (P0260, manufactured by Daco) for the secondary antibody, and tetramethylbenzidine for the chromogenic substrate, and measuring the absorption at a wavelength of 450 nm by using a reference wavelength of 630 nm on a spectrophotometer (NJ-2100, manufactured by Intermed).
Intensity of the affinity of the peptide for the phosphatidyl serine was evaluated by using the value obtained by subtracting the absorption of the well having no human Factor VIII added thereto from the absorption of the well having only the human Factor VIII added thereto as the control value (100%), and designating the peptide concentration at which the value 0.5 was obtained when the value obtained by subtracting the absorption of the well having only the peptide added thereto from the absorption of the well having a mixture of the human Factor VIII and the peptide added thereto were divided by the control value as the IC50 value, and evaluating the intensity to be ++ when the IC50 value was up to 1 μM, and + when the intensity was more than 1 μM but not more than 10 μM. It is to be noted that the specific affinity was evaluated to be none when the intensity was 10 μM or more.

A short description of data set [3]: Measurement of turbidity in BSA (absorbance at 600 nm). As to conditions: 1% BSA, peptide 50 μM. Format: physicochemical. The procedure:
The solutions were evaluated for their absorbance at a wavelength of 600 nm by using a spectrophotometer (DU640, manufactured by Beckman).

With “TRYLRIHPRLWVHQIALRLRYLRIHPRLWVHQIALRS [SEQ ID NO: 11]”, the Nucleic acid-introducing ability in data set [1] is on record as 3+ (1,000,000 to less than 10,000,000). The IC50 in data set [2] fell in the range of 1 to 10 µM. The substance also yielded an OD 600 in data set [3] of less than 0.01.

Regarding “TRFLRIHPRSWVHQIALRLRFLRIHPRSWVHQIALRS [SEQ ID NO: 5]”, the Nucleic acid-introducing ability in data set [1] was 2+ (100,000 to less than 1,000,000). Besides, the concentration for half-maximal inhibition (IC50) in data set [2] was less than 1 µM. The substance also came in with an OD 600 in data set [3] of less than 0.01.

Regarding “SEQ ID NO: 24: deletion mutant of the peptide of SEQ ID NO: 4 (TLRYLRIHPRSWLHQIALRS)”, the Nucleic acid-introducing ability in data set [1] is 1+ (10,000 to less than 100,000). Further, in data set [1] (procedure of Example 9), the “Ability of introducing the nucleic acid into a cell” value was “had the ability of introducing the nucleic acid into a cell”.

Consider “TRYLRIRPRSWVRQIALRLRYLRIRPRSWVRQIALRS [SEQ ID NO: 15]”, for which, in data set [1], the Nucleic acid-introducing ability was 2+ (100,000 to less than 1,000,000). Besides, the IC50 in data set [2] is less than 1 µM. The OD 600 in data set [3] is less than 0.01.

Turning to “TRYLRIHPRSWVRQIALRLRYLRIHPRSWVRQIALRS [SEQ ID NO: 2]”, in data set [1], the Nucleic acid-introducing ability is 3+ (1,000,000 to less than 10,000,000). Further, the concentration for half-maximal inhibition (IC50) in data set [2] is less than 1 µM. In data set [3], this substance registered an OD 600 of less than 0.01.

As for “TRYLRLHPRSWLHQLALRLRYLRLHPRSWLHQLALRS [SEQ ID NO: 19]”, the Nucleic acid-introducing ability in data set [1] is reported as 4+ (10,000,000 to less than 100,000,000). For the same substance, the concentration for half-maximal inhibition (IC50) in data set [2] is less than 1 µM. This substance also registered an OD 600 in data set [3] of less than 0.01.

Turning to “TRYLRIHPKSWVHQIALRLRYLKIHPRSWVHQIALRS [SEQ ID NO: 8]”, the Nucleic acid-introducing ability in data set [1] is given as 3+ (1,000,000 to less than 10,000,000). In data set [2], the IC50 lay within 1 to 10 µM. Also, in data set [3], the OD 600 is less than 0.01.

As to “TRSLRIHPRLWVHQIALRLRSLRIHPRLWVHQIALRS [SEQ ID NO: 17]”, the Nucleic acid-introducing ability in data set [1] is given as 2+ (100,000 to less than 1,000,000). Further, in data set [2], the IC50 is less than 1 µM. In data set [3], this substance returned an OD 600 of less than 0.01.

On to “TIHPRSWVHQIALRLRYLRIHPRSWVHQIAS [SEQ ID NO: 23]”, for which the Nucleic acid-introducing ability in data set [1] was 2+ (100,000 to less than 1,000,000). In data set [1] (procedure of Example 9), the “Ability of introducing the nucleic acid into a cell” value is listed as “had the ability of introducing the nucleic acid into a cell”. Besides, the half-maximal inhibitory concentration (IC50) in data set [2] was less than 1 µM. This substance yielded an OD 600 in data set [3] of less than 0.01.

For the substance “TRYLRIHPRSWVHQIALKLKYLRIHPRSWVHQIALRS [SEQ ID NO: 7]”, the Nucleic acid-introducing ability in data set [1] is 2+ (100,000 to less than 1,000,000). For the same substance, the half-inhibitory concentration (IC50) in data set [2] fell in the range of 1 to 10 µM. Besides, the OD 600 in data set [3] is less than 0.01.

For “TRSLRIHPRSWVHQIALRLRSLRIHPRSWVHQIALRS [SEQ ID NO: 10]”, in data set [1], the Nucleic acid-introducing ability was 3+ (1,000,000 to less than 10,000,000). For the same substance, in data set [2], the IC50 was 1 to 10 µM. Also, the OD 600 in data set [3] is less than 0.01.

Turning to “TRYLRIHPRSWVHNIALRLRYLRIHPRSWVHNIALRS [SEQ ID NO: 6]”, the Nucleic acid-introducing ability in data set [1] is 2+ (100,000 to less than 1,000,000). Also, the IC50 in data set [2] is less than 1 µM. Further, in data set [3], the OD 600 was less than 0.01.

Take “SEQ ID NO: 22: SEQ ID NO: 1 with three locations in the 18 amino acid sequence substituted (TRRLRIHPRRWVHRIALRLRRLRIHPRRWVHRIALRS)”: the Nucleic acid-introducing ability in data set [1] is on record as 3+ (1,000,000 to less than 10,000,000).

In the case of “SEQ ID NO: 12: SEQ ID NO: 1 with one or two locations in the 18 amino acid sequence substituted (TRYLRIHPRSWVHQIALSLRYLRIHPRSWVHQIALSS)”, in data set [1], the Nucleic acid-introducing ability is 2+ (100,000 to less than 1,000,000).

For the substance “SEQ ID NO: 18: SEQ ID NO: 1 with one or two locations in the 18 amino acid sequence substituted (TRYLRIHPRSWLHQIALRTRYLRIHPRSWLHQIALRS)”, in data set [1], the Nucleic acid-introducing ability is given as 4+ (10,000,000 to less than 100,000,000).

Regarding “SEQ ID NO: 9: SEQ ID NO: 1 with one or two locations in the 18 amino acid sequence substituted (TRYLRIHPRSWVHQIALRTRYLRIHPRSWVHQIALRS)”, the Nucleic acid-introducing ability in data set [1] was 3+ (1,000,000 to less than 10,000,000).

As for Polylysine [reference compound], in data set [2] (procedure of Example 20), the “Affinity for phosphatidyl serine” value is “no affinity for phosphatidyl serine”. The “OD 600” value in data set [3] was not below 1.

Consider “SEQ ID NO: 26: SEQ ID NO: 1 with amino acid substitution so that it lacks the four sided 18 amino acid sequence (TRYLRIHPRSWVLQIALRLRYLRIHPRSWVLQIALRS) [reference compound]”, for which, in data set [1] (procedure of Example 9), the “Ability of introducing the nucleic acid into a cell” value is given as “no nucleic acid-introducing ability was found” and the “Fluorescent count per 1 mg of protein per 1 second” value is given as “less than 10,000 cps/mg protein”.

As for “TRYLRIHPRSWVHQIRLRLRYLRIHPRSWVHQIRLRS [SEQ ID NO: 3]”, the Nucleic acid-introducing ability in data set [1] is recorded as 2+ (100,000 to less than 1,000,000). Further, the 50% inhibitory concentration (IC50) in data set [2] was less than 1 µM. In data set [3], this substance displayed an OD 600 of less than 0.01.

“SEQ ID NO: 14: SEQ ID NO: 1 with one or two locations in the 18 amino acid sequence substituted (TRYLRIHPRSWSHQIALRLRYLRIHPRSWSHQIALRS)”: the Nucleic acid-introducing ability in data set [1] is given as 3+ (1,000,000 to less than 10,000,000).

Take “SEQ ID NO: 21: SEQ ID NO: 1 with three locations in the 18 amino acid sequence substituted (TKYLKIHPKSWVHQIALRLKYLKIHPKSWVHQIALRS)”: the Nucleic acid-introducing ability in data set [1] was 2+ (100,000 to less than 1,000,000).

On to “SEQ ID NO: 13: SEQ ID NO: 1 with one or two locations in the 18 amino acid sequence substituted (TRYLRIHPRSLVHQIALRLRYLRIHPRSLVHQIALRS)”, for which, in data set [1], the Nucleic acid-introducing ability is recorded as 3+ (1,000,000 to less than 10,000,000).

Turning to “SEQ ID NO: 20: SEQ ID NO: 1 with three locations in the 18 amino acid sequence substituted (TRYLRLHPRSWVHQLALRTRYLRLHPRSWVHQLALRS)”, the Nucleic acid-introducing ability in data set [1] is given as 4+ (10,000,000 to less than 100,000,000).

Broadly, the IC50 is the point on the concentration scale where inhibition reaches its midpoint.
